“Also recorded” adds a separate entry of the source. Read-outs that look alike come from different tables or passages of the source.
Conditions: for subjects with nausea / subjects with treatment-emergent diarrhea: Safety Set
From the text: This study followed a randomized, double-blind, placebo-controlled, parallel-group, multicenter design.
Analysis set for safety: Safety Set included all subjects who received at least 1 dose of study drug.

SMILES: O=C(O)[C@H]1C2CCC(CC2)[C@@H]1Nc1nc(-c2c[nH]c3ncc(F)cc23)ncc1F [Compound (1), Pimodivir]
- TEAE: Hyperglycaemia (600 mg, OST placebo, N=74): 2 (2.7%) n (%)
- TEAE: Hyperhidrosis (600 mg, OST placebo, N=74): 1 (1.4%) n (%)
- TEAE: Hyperkalaemia (600 mg, OST placebo, N=74): 2 (2.7%) n (%)
- TEAE: Hyperproteinaemia (600 mg, OST placebo, N=74): 0 n (%)
- TEAE: Hypertension (600 mg, OST placebo, N=74): 0 n (%)
- TEAE: Hyperuricaemia (600 mg, OST placebo, N=74): 0 n (%)
- TEAE: Hypokalaemia (600 mg, OST placebo, N=74): 0 n (%)
- TEAE: Hyponatraemia (600 mg, OST placebo, N=74): 0 n (%)
- TEAE: Hypophosphataemia (600 mg, OST placebo, N=74): 0 n (%)
- TEAE: Hypothermia (600 mg, OST placebo, N=74): 0 n (%)
- TEAE: Increased appetite (600 mg, OST placebo, N=74): 1 (1.4%) n (%)
- TEAE: Infections and infestations (600 mg, OST placebo, N=74): 1 (1.4%) n (%)
- TEAE: Injury, poisoning and procedural complications (600 mg, OST placebo, N=74): 1 (1.4%) n (%)
- TEAE: Insomnia (600 mg, OST placebo, N=74): 1 (1.4%) n (%)
- TEAE: Investigations (600 mg, OST placebo, N=74): 10 (13.5%) n (%)
- TEAE: Irritability (600 mg, OST placebo, N=74): 1 (1.4%) n (%)
- TEAE: Labyrinthitis (600 mg, OST placebo, N=74): 0 n (%)
- TEAE: Leukopenia (600 mg, OST placebo, N=74): 1 (1.4%) n (%)
- TEAE: Lymph node pain (600 mg, OST placebo, N=74): 0 n (%)
- TEAE: Lymphadenopathy (600 mg, OST placebo, N=74): 0 n (%)
- TEAE: Lymphopenia (600 mg, OST placebo, N=74): 1 (1.4%) n (%)
- TEAE: Metabolism and nutrition disorders (600 mg, OST placebo, N=74): 5 (6.8%) n (%)
- TEAE: Micturition urgency (600 mg, OST placebo, N=74): 1 (1.4%) n (%)
- TEAE: Middle ear effusion (600 mg, OST placebo, N=74): 0 n (%)
- TEAE: Migraine (600 mg, OST placebo, N=74): 1 (1.4%) n (%)
- TEAE: Muscle spasms (600 mg, OST placebo, N=74): 0 n (%)
- TEAE: Musculoskeletal and connective tissue disorders (600 mg, OST placebo, N=74): 1 (1.4%) n (%)
- TEAE: Musculoskeletal chest pain (600 mg, OST placebo, N=74): 0 n (%)
- TEAE: Myalgia (600 mg, OST placebo, N=74): 0 n (%)
- TEAE: Myocarditis (600 mg, OST placebo, N=74): 0 n (%)
- TEAE: Nasal congestion (600 mg, OST placebo, N=74): 0 n (%)
- TEAE: Nausea (600 mg, OST placebo, N=74): 3 (4.1%) n (%)
- TEAE: Nephropathy (600 mg, OST placebo, N=74): 0 n (%)
- TEAE: Nervous system disorders (600 mg, OST placebo, N=74): 4 (5.4%) n (%)
- TEAE: Neutropenia (600 mg, OST placebo, N=74): 1 (1.4%) n (%)
- TEAE: Neutrophil count decreased (600 mg, OST placebo, N=74): 4 (5.4%) n (%)
- TEAE: Oedema peripheral (600 mg, OST placebo, N=74): 0 n (%)
- TEAE: Oral herpes (600 mg, OST placebo, N=74): 1 (1.4%) n (%)
- TEAE: Otitis media (600 mg, OST placebo, N=74): 0 n (%)
- TEAE: Paraesthesia (600 mg, OST placebo, N=74): 0 n (%)
- TEAE: Percussion test abnormal (600 mg, OST placebo, N=74): 0 n (%)
- TEAE: Petechiae (600 mg, OST placebo, N=74): 0 n (%)
- TEAE: Pharyngitis streptococcal (600 mg, OST placebo, N=74): 0 n (%)
- TEAE: Pneumonia chlamydial (600 mg, OST placebo, N=74): 0 n (%)
- TEAE: Protein urine (600 mg, OST placebo, N=74): 0 n (%)
- TEAE: Protein urine present (600 mg, OST placebo, N=74): 0 n (%)
- TEAE: Proteinuria (600 mg, OST placebo, N=74): 0 n (%)
- TEAE: Pruritus (600 mg, OST placebo, N=74): 0 n (%)
- TEAE: Psychiatric disorders (600 mg, OST placebo, N=74): 3 (4.1%) n (%)
- TEAE: Rash (600 mg, OST placebo, N=74): 0 n (%)
- TEAE: Red blood cells urine (600 mg, OST placebo, N=74): 0 n (%)
- TEAE: Renal and urinary disorders (600 mg, OST placebo, N=74): 1 (1.4%) n (%)
- TEAE: Renal failure (600 mg, OST placebo, N=74): 0 n (%)
- TEAE: Renal failure chronic (600 mg, OST placebo, N=74): 0 n (%)
- TEAE: Renal impairment (600 mg, OST placebo, N=74): 0 n (%)
- TEAE: Respiratory, thoracic and mediastinal disorders (600 mg, OST placebo, N=74): 2 (2.7%) n (%)
- TEAE: Rhonchi (600 mg, OST placebo, N=74): 0 n (%)
- TEAE: Sensation of foreign body (600 mg, OST placebo, N=74): 0 n (%)
- TEAE: Sinus bradycardia (600 mg, OST placebo, N=74): 0 n (%)
- TEAE: Sinus congestion (600 mg, OST placebo, N=74): 0 n (%)
- TEAE: Sinus tachycardia (600 mg, OST placebo, N=74): 0 n (%)
- TEAE: Sinusitis (600 mg, OST placebo, N=74): 0 n (%)
- TEAE: Skin and subcutaneous tissue disorders (600 mg, OST placebo, N=74): 2 (2.7%) n (%)
- TEAE: Sleep disorder (600 mg, OST placebo, N=74): 1 (1.4%) n (%)
- TEAE: Sleep terror (600 mg, OST placebo, N=74): 0 n (%)
- TEAE: Syncope (600 mg, OST placebo, N=74): 0 n (%)
- TEAE: Tachycardia (600 mg, OST placebo, N=74): 0 n (%)
- TEAE: Thrombocytopenia (600 mg, OST placebo, N=74): 0 n (%)
- TEAE: Tinnitus (600 mg, OST placebo, N=74): 0 n (%)
- TEAE: Tongue discolouration (600 mg, OST placebo, N=74): 0 n (%)
- TEAE: Tremor (600 mg, OST placebo, N=74): 0 n (%)
- TEAE: Upper respiratory tract infection (600 mg, OST placebo, N=74): 0 n (%)
- TEAE: Urinary tract infection (600 mg, OST placebo, N=74): 0 n (%)
- TEAE: Urine ketone body present (600 mg, OST placebo, N=74): 0 n (%)
- TEAE: Vascular disorders (600 mg, OST placebo, N=74): 0 n (%)
- TEAE: Vertigo (600 mg, OST placebo, N=74): 0 n (%)
- TEAE: Vomiting (600 mg, OST placebo, N=74): 3 (4.1%) n (%)
- TEAE: Wheezing (600 mg, OST placebo, N=74): 1 (1.4%) n (%)
- TEAE: White blood cell count decreased (600 mg, OST placebo, N=74): 1 (1.4%) n (%)
- Worst grade 1 or 2 TEAE (600 mg, OST placebo, N=74): 34 (45.9%)
- Worst grade 3 TEAE (600 mg, OST placebo, N=74): 5 (6.8%)
- Worst grade 3 or 4 TEAE (600 mg, OST placebo, N=74): 5 (6.8%)
- Worst grade 4 TEAE (600 mg, OST placebo, N=74): 0
- subjects with nausea (Compound (1) 300 mg bid): 4.1%
- subjects with treatment-emergent diarrhea (Compound (1) 300 mg bid): 6.8%
- severe events considered possibly related to trial medication (Compound (1) 600 mg bid): blood creatine phosphokinase increased and diarrhea
- subjects with nausea (Compound (1) 600 mg bid): 4.1%
- subjects with treatment-emergent diarrhea (Compound (1) 600 mg bid): 27.0%
- treatment-emergent serious adverse event (SAE) (Compound (1) 600 mg bid, one subject, doubtfully related according to the investigator): an SAE of moderate increased alanine aminotransferase; also recorded: a moderate treatment-emergent AE (TEAE) of increased alanine aminotransferase
- overall safety and tolerability (clinical study, 300 or 600 mg bid): generally safe and well tolerated
